From ChEMBL document CHEMBL3044672, “N9- and N7-(Chloromethyl Phenymethyl)Chloropurine Derivatives from , '-Dichloroxylenes: Synthesis and Anticancer Activity” (2005)

Legend:
Type in all cases: functional
BT-549 = experiment: Cytotoxicity against Homo sapiens (human) BT549 cells after 48 hr by sulforhodamine B assay; conditions: BT-549, 48 h
MCF7 = experiment: Cytotoxicity against Homo sapiens (human) MCF7 cells after 48 hr by sulforhodamine B assay; conditions: MCF7, 48 h
HT-29 = experiment: Cytotoxicity against Homo sapiens (human) HT-29 cells after 48 hr by sulforhodamine B assay; conditions: HT-29, 48 h; for CC50: read-out: LC50 (the source's name)
NCI-H522 = experiment: Cytotoxicity against Homo sapiens (human) NCI-H522 cells after 48 hr by sulforhodamine B assay; conditions: NCI-H522, 48 h; for CC50: read-out: LC50 (the source's name)
NCI-H460 = experiment: Cytotoxicity against Homo sapiens (human) NCI-H460 cells assessed as cell growth at 10^-4 M after 48 hr by Alamar blue assay; conditions: NCI-H460, 48 h, read-out: Activity
OVCAR-8 = experiment: Cytotoxicity against Homo sapiens (human) OVCAR8 cells after 48 hr by sulforhodamine B assay; conditions: OVCAR-8, 48 h
U-251 = experiment: Cytotoxicity against Homo sapiens (human) U251 cells after 48 hr by sulforhodamine B assay; conditions: U-251, 48 h
A498 = experiment: Cytotoxicity against Homo sapiens (human) A498 cells after 48 hr by sulforhodamine B assay; conditions: A498, 48 h
MDA-MB-435 = experiment: Cytotoxicity against Homo sapiens (human) MDA-MB-435 cells after 48 hr by sulforhodamine B assay; conditions: MDA-MB-435, 48 h
SF-268 = experiment: Cytotoxicity against Homo sapiens (human) SF268 cells assessed as cell growth at 10^-4 M after 48 hr by […] assay; conditions: SF-268, 48 h, read-out: Activity
UO-31 = experiment: Cytotoxicity against Homo sapiens (human) UO31 cells after 48 hr by sulforhodamine B assay; conditions: UO-31, 48 h
PC-3 = experiment: Cytotoxicity against Homo sapiens (human) PC3 cells after 48 hr by sulforhodamine B assay; conditions: PC-3, 48 h
SN12C = experiment: Cytotoxicity against Homo sapiens (human) SN12C cells after 48 hr by sulforhodamine B assay
OVCAR-3 = experiment: Cytotoxicity against Homo sapiens (human) OVCAR3 cells after 48 hr by sulforhodamine B assay; conditions: OVCAR-3, 48 h
NCI-H226 = experiment: Cytotoxicity against Homo sapiens (human) NCI-H226 cells after 48 hr by sulforhodamine B assay; conditions: NCI-H226, 48 h; for CC50: read-out: LC50 (the source's name)
KM12 = experiment: Cytotoxicity against Homo sapiens (human) KM12 cells after 48 hr by sulforhodamine B assay; conditions: KM12, 48 h; for CC50: read-out: LC50 (the source's name)
SW-620 = experiment: Cytotoxicity against Homo sapiens (human) SW620 cells after 48 hr by sulforhodamine B assay; conditions: SW-620, 48 h; for CC50: read-out: LC50 (the source's name)
COLO 205 = experiment: Cytotoxicity against Homo sapiens (human) COLO205 cells after 48 hr by sulforhodamine B assay; conditions: COLO 205, 48 h; for CC50: read-out: LC50 (the source's name)
RPMI-8226 = experiment: Cytotoxicity against Homo sapiens (human) RPMI8226 cells after 48 hr by sulforhodamine B assay; conditions: RPMI-8226, 48 h; for CC50: read-out: LC50 (the source's name)
SF-539 = experiment: Cytotoxicity against Homo sapiens (human) SF539 cells after 48 hr by sulforhodamine B assay; conditions: SF-539, 48 h
K562 = experiment: Cytotoxicity against Homo sapiens (human) K562 cells after 48 hr by sulforhodamine B assay; conditions: K562, 48 h; for CC50: read-out: LC50 (the source's name)
HCT-116 = experiment: Cytotoxicity against Homo sapiens (human) HCT116 cells after 48 hr by sulforhodamine B assay; conditions: HCT-116, 48 h
HCT-15 = experiment: Cytotoxicity against Homo sapiens (human) HCT15 cells after 48 hr by sulforhodamine B assay; conditions: HCT-15, 48 h
CCRF-CEM = experiment: Cytotoxicity against Homo sapiens (human) CCRF-CEM cells after 48 hr by sulforhodamine B assay
SNB-75 = experiment: Cytotoxicity against Homo sapiens (human) SNB75 cells after 48 hr by sulforhodamine B assay; conditions: SNB-75, 48 h
OVCAR-4 = experiment: Cytotoxicity against Homo sapiens (human) OVCAR4 cells after 48 hr by sulforhodamine B assay; conditions: OVCAR-4, 48 h
SK-MEL-28 = experiment: Cytotoxicity against Homo sapiens (human) SK-MEL-28 cells after 48 hr by sulforhodamine B assay; conditions: SK-MEL-28, 48 h
[1] = read-out: LC50 (the source's name)

SMILES: ClCc1ccc(Cn2cnc3ncnc(Cl)c32)cc1
- GI50 (BT-549): 3.71 µM
- LC50 (50% lethal concentration) (BT-549): 56.2 µM
- TGI (BT-549): 17 µM
- GI50 (MCF7): 1.34 µM
- LC50 (concentration killing 50% of cells) (MCF7): 6.45 µM
- TGI (MCF7): 2.95 µM
- GI50 (HT-29): 1.23 µM
- TGI (HT-29): 3.63 µM
- CC50 (HT-29): 56.2 µM
- GI50 (NCI-H522): 4.26 µM
- TGI (NCI-H522): > 100 µM
- CC50 (NCI-H522): > 100 µM
- growth at 100 µM (NCI-H460): 0%
- GI50 (OVCAR-8): 3.16 µM
- LC50 (concentration killing 50% of cells) (OVCAR-8): 56.2 µM
- TGI (OVCAR-8): 11 µM
- GI50 (U-251): 1.09 µM
- LC50 (concentration killing 50% of cells) (U-251): 4.78 µM
- TGI (U-251): 2.29 µM
- GI50 (A498): 1.81 µM
- LC50 (lethal concentration, 50% cell kill) (A498): 6.3 µM
- TGI (A498): 3.38 µM
- GI50 (MDA-MB-435): 5.88 µM
- LC50 (MDA-MB-435): 46.8 µM
- TGI (MDA-MB-435): 19.1 µM
- growth at 100 µM (SF-268): 1%
- GI50 (UO-31): 4.78 µM
- LC50 (concentration causing 50% net cell kill) (UO-31): > 100 µM
- TGI (UO-31): 66.1 µM
- GI50 (PC-3): 1.58 µM
- LC50 (concentration causing 50% cell kill) (PC-3): 5.37 µM
- TGI (PC-3): 2.95 µM
- GI50 (SN12C): 3.63 µM
- LC50 (50% lethal concentration) (SN12C): 40.7 µM
- TGI (SN12C): 14.8 µM
- GI50 (OVCAR-3): 1.81 µM
- LC50 (OVCAR-3): 6.3 µM
- TGI (OVCAR-3): 3.38 µM
- GI50 (NCI-H226): 3.01 µM
- TGI (NCI-H226): 12 µM
- CC50 (NCI-H226): 37.1 µM
- GI50 (KM12): 1.65 µM
- TGI (KM12): 3.38 µM
- CC50 (KM12): 7.07 µM
- GI50 (SW-620): 2.57 µM
- TGI (SW-620): 7.24 µM
- CC50 (SW-620): 32.4 µM
- GI50 (COLO 205): 1.9 µM
- TGI (COLO 205): 3.8 µM
- CC50 (COLO 205): 7.41 µM
- GI50 (RPMI-8226): 1.28 µM
- TGI (RPMI-8226): 2.69 µM
- CC50 (RPMI-8226): 5.62 µM
- GI50 (SF-539): 2.08 µM
- LC50 (concentration killing 50% of cells) (SF-539): 6.76 µM
- TGI (SF-539): 3.71 µM
- GI50 (K562): 3.01 µM
- TGI (K562): > 100 µM
- CC50 (K562): > 100 µM

SMILES: ClCc1cccc(Cn2cnc3c(Cl)ncnc32)c1
- GI50 (BT-549): 15.1 µM
- LC50 (50% lethal concentration) (BT-549): 60.3 µM
- TGI (BT-549): 30.2 µM
- GI50 (HCT-116): 1.47 µM
- TGI (HCT-116): 3.09 µM
- CC50 (HCT-116; [1]): 6.31 µM
- GI50 (HCT-15): 2.18 µM
- TGI (HCT-15): 4.67 µM
- CC50 (HCT-15; [1]): 10 µM
- GI50 (MCF7): 7.76 µM
- LC50 (concentration killing 50% of cells) (MCF7): > 100 µM
- TGI (MCF7): 77.6 µM
- GI50 (HT-29): 3.23 µM
- TGI (HT-29): > 100 µM
- CC50 (HT-29): > 100 µM
- GI50 (NCI-H522): 18.6 µM
- TGI (NCI-H522): 66.1 µM
- CC50 (NCI-H522): > 100 µM
- GI50 (OVCAR-8): 21.9 µM
- LC50 (concentration killing 50% of cells) (OVCAR-8): 79.4 µM
- TGI (OVCAR-8): 41.7 µM
- GI50 (U-251): 1.82 µM
- LC50 (concentration killing 50% of cells) (U-251): 6.76 µM
- TGI (U-251): 3.46 µM
- GI50 (CCRF-CEM): 1.9 µM
- TGI (CCRF-CEM): 3.89 µM
- CC50 (CCRF-CEM; [1]): 7.62 µM
- GI50 (SNB-75): 2.08 µM
- TGI (SNB-75): 4.57 µM
- CC50 (SNB-75; [1]): 10 µM
- GI50 (A498): 17.4 µM
- LC50 (lethal concentration, 50% cell kill) (A498): 58.9 µM
- TGI (A498): 31.6 µM
- GI50 (MDA-MB-435): 1.69 µM
- LC50 (MDA-MB-435): 6.45 µM
- TGI (MDA-MB-435): 3.31 µM
- GI50 (OVCAR-4): 2.34 µM
- LC50 (concentration killing 50% of cells) (OVCAR-4): 26.3 µM
- TGI (OVCAR-4): 5.75 µM
- GI50 (UO-31): 1.44 µM
- LC50 (concentration causing 50% net cell kill) (UO-31): 89.1 µM
- TGI (UO-31): 36.3 µM
- GI50 (SK-MEL-28): 2.23 µM
- LC50 (concentration killing 50% of cells) (SK-MEL-28): 28.8 µM
- TGI (SK-MEL-28): 5.75 µM
- GI50 (PC-3): 4.16 µM
- LC50 (concentration causing 50% cell kill) (PC-3): 67.6 µM
- TGI (PC-3): 18.2 µM
- GI50 (SN12C): 2.34 µM
- LC50 (50% lethal concentration) (SN12C): 14.5 µM
- TGI (SN12C): 5.12 µM
- GI50 (OVCAR-3): 1.62 µM
- LC50 (OVCAR-3): 5.75 µM
- TGI (OVCAR-3): 3.02 µM
- GI50 (NCI-H226): 2.13 µM
- TGI (NCI-H226): 14.4 µM
- CC50 (NCI-H226): 8.91 µM
- GI50 (KM12): 3.46 µM
- TGI (KM12): 13.5 µM
- CC50 (KM12): 3.98 µM
- GI50 (SW-620): 2.13 µM
- TGI (SW-620): 4.36 µM
- CC50 (SW-620): 8.91 µM
- GI50 (COLO 205): 3.09 µM
- TGI (COLO 205): 10.5 µM
- CC50 (COLO 205): 74.1 µM
- GI50 (RPMI-8226): 3.8 µM
- TGI (RPMI-8226): 16.2 µM
- CC50 (RPMI-8226): 87.1 µM
- GI50 (SF-539): 19.9 µM
- LC50 (concentration killing 50% of cells) (SF-539): 61.7 µM
- TGI (SF-539): 35.5 µM
- GI50 (K562): 3.54 µM
- TGI (K562): 15.1 µM
- CC50 (K562): 75.9 µM
